Structures are written as SMILES. Active and inactive are the calls of the source. The rule behind the calls is not given here.

Assay [1] addresses Hydroxycarboxylic acid receptor 3 (Homo sapiens, UniProt P49019). The assay can be described thus: Agonistic activity at GPR109b by cAMP whole cell assay. Format: functional.
Assay [2] has as its target Hydroxycarboxylic acid receptor 2 (Mus musculus) (UniProt Q9EP66). Description: Activity against GPR109a upto 100 uM. Format: functional.
In assay [3] the target is Adrenergic receptor beta (Homo sapiens) (UniProt P08588+P07550+P13945). The assay can be described thus: Activity against beta adrenergic receptor. The class given is protein assay.

Hydroxycarboxylic acid receptor 2 (Mus musculus), sequence (Q9EP66 whole entry): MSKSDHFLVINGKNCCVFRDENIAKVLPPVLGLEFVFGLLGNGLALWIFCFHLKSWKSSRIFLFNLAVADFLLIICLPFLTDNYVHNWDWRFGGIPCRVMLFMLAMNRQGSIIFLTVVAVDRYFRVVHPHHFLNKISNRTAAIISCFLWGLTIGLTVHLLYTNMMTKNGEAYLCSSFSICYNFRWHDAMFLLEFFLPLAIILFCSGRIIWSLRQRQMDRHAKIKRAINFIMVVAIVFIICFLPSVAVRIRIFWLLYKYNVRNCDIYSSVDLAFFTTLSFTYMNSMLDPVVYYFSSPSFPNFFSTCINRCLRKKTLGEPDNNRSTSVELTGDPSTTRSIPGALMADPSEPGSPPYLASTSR
Hydroxycarboxylic acid receptor 3, sequence (P49019 whole entry): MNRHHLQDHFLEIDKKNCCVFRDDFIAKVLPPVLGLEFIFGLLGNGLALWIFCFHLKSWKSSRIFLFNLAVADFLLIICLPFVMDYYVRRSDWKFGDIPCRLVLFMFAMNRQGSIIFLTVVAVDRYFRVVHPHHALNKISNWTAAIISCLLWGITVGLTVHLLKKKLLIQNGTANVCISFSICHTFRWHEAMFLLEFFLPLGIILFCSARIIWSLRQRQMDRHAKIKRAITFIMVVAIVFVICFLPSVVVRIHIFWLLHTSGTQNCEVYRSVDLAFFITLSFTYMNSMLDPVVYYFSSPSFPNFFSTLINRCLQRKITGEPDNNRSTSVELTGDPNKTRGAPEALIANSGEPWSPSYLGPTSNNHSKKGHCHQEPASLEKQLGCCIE

Take `CC(C)n1nnc2cc(-c3nn[nH]n3)ccc21`: the “Log EC50” value in assay [1] is “inactive”. Besides, the result in assay [2] was inactive.
As usually defined, the EC50 is the concentration giving half of the maximal effect. Read a low EC50 as higher potency in that assay. `O=C(O)c1ccc2c(c1)nnn2C1CCC1`: the concentration giving a half-maximal response (EC50) in assay [1] was 3090 nM. Moreover, the result in assay [2] was inactive.
For the compound `CC(C)n1nnc2cc(C(=O)O)ccc21`, the outcome in assay [3] and in assay [2] was inactive. Also, it took 398 nM to reach a half-maximal effect in assay [1] (EC50).
As for `COc1ccc(Cn2nnc3cc(C(=O)O)ccc32)cc1`, the “Log EC50” value in assay [1] was “inactive”. Moreover, in assay [2], the outcome was inactive.
`COCCn1nnc2cc(C(=O)O)ccc21` showed an EC50 in assay [1] of 316 nM. Also, in assay [2], the outcome was inactive.
On to `O=C(O)c1ccc2[nH]nnc2c1`, for which the “Log EC50” value in assay [1] is “inactive”. Also, the result in assay [2] was inactive.
In assay [1], `CCSCCn1nnc2cc(C(=O)O)ccc21` gave a half-maximal effective concentration (EC50) of 302 nM. The result in assay [2] was inactive.
The like results for `COc1cccc(Cn2nnc3cc(C(=O)O)ccc32)c1` were, in that order, 5010 nM and “inactive”.
In assay [1], `CCn1nnc2cc(C(=O)O)ccc21` showed an EC50 of 891 nM. Moreover, in assay [2], the result was inactive.
The matching figures for `CCCCn1nnc2cc(C(=O)O)ccc21`: 692 nM and “inactive”.
The like results for `CC(C)n1cnc2cc(C(=O)O)ccc21` were, in that order, 3390 nM and “inactive”.
As to `O=C(O)c1ccc2c(c1)nnn2-c1ccccc1`, the “Log EC50” value in assay [1] was “inactive”. In addition, the outcome in assay [2] was inactive.
The compound `O=C(O)c1ccc2c(c1)nnn2Cc1ccccc1` showed a half-maximal effective concentration (EC50) in assay [1] of 9120 nM. For the same compound, the outcome in assay [2] was inactive.
Consider `O=C(O)c1ccc2c(c1)nnn2CC1CC1`, for which, in assay [1], the “Log EC50” value was “inactive”. Moreover, in assay [2], the result was inactive.
Regarding `O=C(O)c1ccc2c(c1)nnn2C1CCCCC1`, the EC50 in assay [1] is 5890 nM. For the same compound, the result in assay [2] was inactive.
The matching figures for `O=C(O)c1ccc2c(c1)nnn2C1CC1`: 2340 nM and “inactive”.
The like results for `CCC(CC)n1nnc2cc(C(=O)O)ccc21` were, in that order, 3020 nM and “inactive”.
The like results for `Cn1nnc2cc(C(=O)O)ccc21` were, in that order, 2000 nM and “inactive”.
In assay [1], `O=C(O)c1ccc2c(c1)nnn2C1CCCC1` gave an EC50 of 1100 nM. Moreover, the outcome in assay [2] was inactive.
The matching figures for `O=C(O)c1ccc2c(c1)nnn2C(c1ccccc1)c1ccccc1`: over 10000 nM and “inactive”.
The matching figures for `CCCCCn1nnc2cc(C(=O)O)ccc21`: 288 nM and “inactive”.
The matching figures for `CCCn1nnc2cc(C(=O)O)ccc21`: 7410 nM and “inactive”.
`O=C(O)c1ccc2c(c1)nnn2Cc1cc(F)cc(F)c1` gave a half-maximal effective concentration (EC50) in assay [1] of over 10000 nM. Moreover, the result in assay [2] was inactive.
For `COCC(C)n1nnc2cc(C(=O)O)ccc21` (centres undefined), the EC50 in assay [1] is 200 nM. In assay [2], the result was inactive.
`Cc1nc2cc(C(=O)O)ccc2n1C(C)C`: the “Log EC50” value in assay [1] is “inactive”. For the same compound, the outcome in assay [2] was inactive.
Take `CCOCCn1nnc2cc(C(=O)O)ccc21`: in assay [1], the EC50 was 257 nM. Also, the result in assay [2] was inactive.
The like results for `CCC(C)n1nnc2cc(C(=O)O)ccc21` (centres undefined) were, in that order, 331 nM and “inactive”.
The like results for `CC(C)(C)n1nnc2cc(C(=O)O)ccc21` were, in that order, 257 nM and “inactive”.
For `C=CCn1nnc2cc(C(=O)O)ccc21`, the “Log EC50” value in assay [1] was “inactive”. Further, the outcome in assay [2] was inactive.

Values taken from ChEMBL document CHEMBL1149437, “1-Alkyl-benzotriazole-5-carboxylic acids are highly selective agonists of the human orphan G-protein-coupled receptor GPR109b” (J Med Chem, 2006).
